Measured values: patent US7465469B2, “Microbiocidal formulation comprising essentials oils or their derivatives” (State of Israel, Ministry of Agriculture & Rural …, priority 2001, dated 2008)
≈ marks a conversion by molar mass, not a printed value. Read-outs that look alike come from different tables or passages of the source.

Assays:
P. digitatum [1] = assay: Minimum inhibitory concentration in PDA Petri dishes (mycelial disc); type: cell-based, Penicillium digitatum; conditions: 24° C., hyphal growth after 7 days
Method: The minimum inhibitory concentration (MIC) of over 50 compounds that were found in the oil glands of citrus fruits was evaluated (in vitro) by establishing the lowest concentration of the compound where no growth of the pathogen occurred (in vitro) in Petri dishes. Table 5 gives the MIC of the more promising compounds (as compared to imazalil). The requisite amount of each of the compounds to be tested, dissolved in 0.5 ml acetone, was added to a sterile Petri dish (90 mm) containing 15 ml of molten potato dextrose agar (PDA) (50° C.) to give a final concentration of 1 mg ml^−1. The dish was gently agitated to ensure an even distribution of the test compound and the agar was then left to set. The dishes were inoculated using a mycelial disc (8 mm) cut from an agar plate culture of P. digitatum which had not yet begun sporulation. The mycelial discs were placed in the center of each test dish and then put at 24° C. Fungal inhibition was monitored by measuring the diameter of hyphal growth after 7 days.

P. digitatum [2] = assay: Mode of action test (fungicidal or fungistatic) by transfer of the mycelial disc to plain PDA; type: cell-based, Penicillium digitatum; conditions: growth monitored 5 days after transfer to plain PDA
From the text: A further test was made (in vitro) to investigate whether the mode of action was fungicidal or fungistatic; the mycelial disc of inoculum from the assay plate was transferred to a plate containing just PDA. Plates were then monitored for growth over the next 5 days. If growth resumed, the compound was classified fungistatic, and if growth was not resumed it was classified as fungicidal.

lemon fruit = assay: Peel blemish index of lemon fruit after 1-minute dip in citral with antioxidant BHA; type: in vivo; conditions: BHA by itself
From the text: The antioxidant reduces the oxidation rate of the essential oils leading to their decomposition. It further reduces the inherent phytotoxicity of the essential oil. The antioxidant may be chosen from the group comprising of compounds such as but not limited to: butylated hydroxyanisole (BHA), ascorbic acid, isoascorbic acid, α-tocopherol, butylated hydroxytoluene (BHT), β-carotene or their mixtures. Preferred concentrations of the antioxidant in the formulation of the invention are in the range of from about 0.05% to about 0.8% (w/v).
The peel blemish index is determined by
(§1) The blemish score is 0 =no blemishes; 1=light blemishes; 2=moderate blemishes; and 3=severe blemishes.

Penicillium = assay: Decay of lemons inoculated as in Example 2 and treated with citral emulsions; type: in vivo, Penicillium digitatum on lemons
Method: Unblemished grapefruit were harvested from the orchard and on the same day sorted again in the laboratory to eliminate injured fruit. The grapefruit were washed with tap water and air-dried. Each fruit was then inoculated by piercing its flavedo tissue 1.5 mm deep with a tool incorporating three needles at three different sites. Prior to each piercing, the tool was immersed in a spore suspension of Penicillium digitatum (10^6 spores/ml). The inoculated grapefruit were kept at 17° C. and 85% relative humidity for 24 hours after which the grapefruit were divided into six groups and grapefruit from each group were treated by dipping for two minutes in: (a) water; (b) 25% Ethanol (EtOH); (c) 0.2% Geraniol in 25% EtOH; (d) 0.1% Citral in 25% EtOH, (e) 0.2% Citral in 25% EtOH and (f) 0.5% Citral in 25% EtOH.
Lemons were inoculated as shown in Example 2 and treated with and without 25% of ethanol to check whether the 5000 ppm of the emulsifier Tween 20 could stabilize the antifungal activity of citral. […] Probably the emulsifier enables the formation of a microcolloidal stable emulsion, which prevents the phytotxicity by allowing uniform dispersion of citral, which is phytotoxic by itself in these concentrations. Thus, Tween 20 combined with the antioxidant BHA could substitute for the ethanol in the formulation.
Lemons inoculated with Penicillium as shown in Example 2 were dipped for 2 minutes in an aqueous solution comprising citral, emulsifier (Triton X100) and BHA at various concentrations. The concentration of Citral is 1.0%. The control solution was comprised of 0.5% Triton X100.
Lemons inoculated with Penicillium as shown in Example 2 were treated with an aqueous solution comprising 0.5% Citral, 0.3% BHA, Tween 20 and imazalil and stored at 20° C. for a period of 21 days.

Geotrichum Candidum = assay: In vitro agar diffusion assay; type: cell-based; conditions: Five mg on paper disc; Total inhibition is the maximal inhibition, 62.3 cm^2
Penicillium italicum = assay: In vitro agar diffusion assay; type: cell-based; conditions: Five mg on paper disc; Total inhibition is the maximal inhibition, 62.3 cm^2
Alternaria citri = assay: In vitro agar diffusion assay; type: cell-based; conditions: Five mg on paper disc; Total inhibition is the maximal inhibition, 62.3 cm^2
Penicillium digitatum [3] = assay: Decay of Penicillium-inoculated grapefruit after 2-minute dip; type: in vivo, Penicillium digitatum on grapefruit
From the text: Unblemished grapefruit were harvested from the orchard and on the same day sorted again in the laboratory to eliminate injured fruit. The grapefruit were washed with tap water and air-dried. Each fruit was then inoculated by piercing its flavedo tissue 1.5 mm deep with a tool incorporating three needles at three different sites. Prior to each piercing, the tool was immersed in a spore suspension of Penicillium digitatum (10^6 spores/ml).

Erwinia carotovora = assay: Control of bacterial growth (other experiments, data not shown); type: cell-based
P. digitatum [4] = assay: Control of fungal growth (other experiments, data not shown); type: cell-based, Penicillium digitatum
Cladosporium herbarum = assay: Inhibition of Cladosporium herbarum growing on inoculated corn cob; type: in vivo; conditions: dissolved in 25% ethanol
lemons = assay: Induction of phytoalexins (scoparone, scopoletin) in lemons; type: in vivo, lemon; conditions: injection into the albedo tissue of lemons
Method: Treating uninoculated lemons by injecting 5 μl photo-oxidized limonene into the albedo tissue, just below the flavedo, elicited in these lemons the production of scoparone and scopoletin up to levels adequate to protect the fruit from the pathogen. […] Such injury of yellow fruit gave much lower response showing that the maturity of fruit affects this resistance response and older fruit is less protected (FIG. 2). […] Furthermore much higher levels of both scoparone (over 1000 μg/g fresh weight) and of scopoletin (over 200 μg/g fresh weight) were found after dipping inoculated fruit in the crude dichloromethane extract that prevented decay (FIG. 7). The phytoalexins level found was several fold of the amount required to control completely the pathogens. Thus apparently, the formed limonene hydroperoxides form reactive oxygen species, which elicit the immune system of the plant. Such reactive oxygen species effect the pathogen as well. These reactive oxygen species have a short life and decompose well before the fruit is distributed to the market.

[5] = tested on: microbial population in meat cuts of beef; assay: Total count of microbial population in beef meat cuts after dip; conditions: 30 seconds dip in 0.2% Citral dissolved in 20% ethanol; 2 weeks at 1° C.
Method: The meat cuts were then stored in 1° C. and 85% relative humidity and a total count of the microbial population in each meat cut was carried out 2 weeks after treatment.

[6] = tested on: wild type Candida albicans; assay: Growth of Candida albicans cells in culture broth (OD 600 nm); type: cell-based
Method: Cells of wild type Candida albicans (1×10^3) were grown on culture broth at 37° C. with different concentration of extracts 50-100 μl. OD was determined at 600 nm. The following treatments in 6 different tubes were given: […] TUBE 2. 2000 ppm Citral+25% Ethanol+2000 ppm Tween-20+300 ppm BHA. […] TUBE 6. 25% ethanol+2000 ppm Tween-20+500 ppm β-CD+300 ppm BHA.

[7] = tested on: non-inoculated Washington oranges; assay: Decay percentage of non-inoculated Washington oranges during storage; type: in vivo, Washington navel oranges
Method: Non-inoculated Washington navel oranges were divided into […] groups which were treated as follows: (a) no treatment; (b) dipped in 50% Ethanol; (c) dipped in 0.2% Citral in 0.02% L-77 Emulsifier (aqueous emulsion); (d) dipped in 0.2% Citral in 50% Ethanol; and (e) dipped in a 0.2% aqueous Imazalil solution.
Oranges were then stored for four months at 15° C. in 50-75% relative humidity and the percentage of rotten fruit in each group was measured at different time periods after storage.

Penicillium digitatum [8] = assay: Decay of lemons inoculated with Penicillium 10^4 spores/ml and dipped; type: in vivo, Penicillium digitatum on lemons; conditions: limonene or peel extract not irradiated or exposed to sunlight
Method: Lemon fruit flavedo (exocarp) was taken and extracted overnight in dichloromethane, then exposed to sunlight for about 18 hours until the color of the dichloromethane extract turned brown. The flavedo was blended and filtered through a layer of Whatman paper. The extracted solution was evaporated to remove the dichloromethane and the dense liquor was further separated by chromatography with a silica 60 column using dichloromethane as a carrier. Two fractions of dichloromethane, one green and the other colorless, were obtained after chromatography. The crude active extract was isolated by evaporation of the green dichloromethane fraction. […] Effect of the compounds on pathogen development on the fruit was checked daily during storage.
The antifungal activity of the products prepared in the two different routes was checked in the same method. […] Decay was evaluated at specific intervals during a period of 26 days.
Lemons inoculated with Penicillium (10^4 spores/ml) were dipped in an aqueous solution comprising citral, a detergent (Tween 20), other essential oil components as well as a dichloromethane crude extract of lemon flavedo exposed to sunlight. Decay was evaluated at specific intervals during a period of 20 days.
Pure limonene was exposed to sunlight for three hours. […]

fruit = assay: Phytotoxicity of citral solutions comprising emulsifiers (1-minute fruit dip); conditions: in vivo
From the text: as §1

[9] = Penicillium digitatum, 168 h, read-out: MIC

| Compound | MIC (P. digitatum [1]; [9]) [µg/mL] | Mode of action (P. digitatum [2]) | GROWTH INHIBITION AREA OF THE PATHOGEN (Geotrichum Candidum) | GROWTH INHIBITION AREA OF THE PATHOGEN (Penicillium italicum) | GROWTH INHIBITION AREA OF THE PATHOGEN (Alternaria citri) | other results |
| --- | --- | --- | --- | --- | --- | --- |
| C=C(C)C1CC=C(C)C(O)C1 (mixture of isomers) [Carveol] | 1000 | Fungistatic |  |  |  |  |
| COc1ccc(O)c(C(C)(C)C)c1 [BHA, butylated hydroxyanisole] |  |  |  |  |  | Peel blemish (lemon fruit): did not cause any blemish; activity of citral in preventing the development of the pathogen (Penicillium; 0.1% BHA with 1.0% citral and Triton X100, 2 minutes dip): enhancing the activity of citral |
| O=CC=Cc1ccccc1 [Cinnamaldehyde] | 400 (≈ 3030 µM) | Fungicidal | 24.2 cm^2 | Total inhibition | Total inhibition |  |
| CC(C)=CCCC(C)=CC=O [Citral, 3,7-dimethyl-2,6-octadienal] | 400 (≈ 2630 µM) | Fungicidal | 10.6 cm^2 | Total inhibition | Total inhibition | fruit showing decay (Penicillium digitatum [3]; 0.2% Citral dissolved in 25% EtOH, 28 days after inoculation): 20%; decay of fruit (Penicillium digitatum [3]; 0.2% Citral dissolved in 25% EtOH, until 18 days after inoculation): completely inhibited decay; decay of fruit (Penicillium digitatum [3]; 0.5% Citral in 25% EtOH, ascribed to phytotoxicity): enhanced decay; controlling growth of the bacteria (Erwinia carotovora): effective in controlling growth; controlling growth of the fungi (P. digitatum [4]): effective in controlling growth; inhibition of the pathogen (Cladosporium herbarum): marked inhibition; elicitation of phytoalexin (scoparone, scopoletin) production (lemons): did not elicit the same protective response; decay control (Penicillium; 0.5% citral added to 1 ppm imazalil, 0.3% BHA, Tween 20, 20° C., 21 days): did not control decay adequately; decay control (Penicillium; 0.5% citral added to 10 ppm imazalil, 0.3% BHA, Tween 20, 20° C., 21 days): prevented decay completely; total counts of microbial population, relative to the non-treated meat cuts [5]: less than 10%; cell growth ([6]; 2000 ppm Citral in 25% ethanol and 2000 ppm Tween 20): completely inhibited cell growth; cell growth ([6]; 2000 ppm Citral, 25% ethanol, 2000 ppm Tween 20 together with β-CD 500 ppm, 300 ppm BHA): completely inhibited cell growth |
| CC(C)=CCCC(C)CC=O (stereo not shown) [Citronellal] | 600 (≈ 3890 µM) | Fungistatic |  |  |  |  |
| CCCCCCCCCCO [Decanol] | 50 (≈ 316 µM) | Fungistatic | 0.95 cm^2 | Total inhibition | Total inhibition |  |
| C=CCOC(Cn1ccnc1)c1ccc(Cl)cc1Cl (stereo not shown) [Imazalil, reference compound] | < 25 | Fungicidal | 8.3 cm^2 | Total inhibition | 42.8 cm^2 | % of rotten fruit ([7]; 0.5 months of storage at 15° C.): 0%; % of rotten fruit ([7]; 1 month of storage at 15° C.): 2%; % of rotten fruit ([7]; 2 months of storage at 15° C.): 4%; % of rotten fruit ([7]; 3 months of storage at 15° C.): 5%; % of rotten fruit ([7]; 4 months of storage at 15° C.): 8%; decay control (Penicillium; imazalil 1 and 10 ppm, stored at 20° C. for 21 days): insufficient to control completely decay |
| CCCCCCCCCO [Nonanol] | 200 (≈ 1390 µM) | Fungistatic |  |  |  |  |
| CCCCCCCC=O [Octanal] |  |  | 3.6 cm^2 | 2.6 cm^2 | 5.3 cm^2 |  |
| CCCCCCCCO [Octanol] | 100 (≈ 768 µM) | Fungicidal | Total inhibition | Total inhibition | Total inhibition |  |
| C=C(C)[C@@H]1CC=C(CO)CC1 [Perillalcohol] |  | Fungicidal |  |  |  | MIC (P. digitatum [1]): 0.4 mg ml^−1 agar |
| C=C(C)C1CC=C(C=O)CC1 (stereo not shown) [Perillaldehyde] | 400 (≈ 2660 µM) | Fungicidal | Total inhibition | Total inhibition | Total inhibition |  |
| C=C(C)C1CC=C(C)CC1 (stereo not shown) [limonene, 1-methyl-4-(1-methylethenyl)cyclohexene] |  |  |  |  |  | inhibition of decay (Penicillium digitatum [8]): not adequately active; elicitation of phytoalexin (scoparone, scopoletin) production (lemons): eliciting the endogenous resistance mechanisms |
| polyoxyethylene sorbitan monooleate [Tween 80] |  |  |  |  |  | Phytotoxicity (peel blemish index as in Table 1) (fruit): 0 |
